Data on 43 compounds can be found in patent US7572818B2, “2-pyridylethylbenzamide derivative” (Bayer Cropscience S.A., priority 2002, dated 2009).

In the first assay the test system is Alternaria brassicae. In words: In vivo test of activity on Alternaria brassicae (crucifer black spot) on radish. Conditions: 250 g/ha, preventive spray 24 h before inoculation. The method, then: In Vivo Test of Activity on Alternaria brassicae (Crucifer Black Spot)
An aqueous solution of the active material to be tested is prepared at a concentration of 2 g/l by grinding in solution 1 or solution 2:
• Water • Tween 80 diluted to 10% in water: 5 μl/mg of active material • Clay in a sufficient amount for active material+clay to equal 100 mg; Solution 2
Concentrated solution containing surfactants and adjuvants conventionally used: 200 μl/mg of active material.
The aqueous solution is diluted with water so as to obtain the desired concentration.
Radishes of the Pernot variety are sown in a 50/50 pozzolan/peat substrate and maintained at 18-22° C. The treatment is carried out by spraying the aqueous suspension. The untreated control plants are sprayed with water. 24 hours after treatment, the plants are inoculated by spraying a solution of Alternaria brassicae spores (40 000 spores/ml) originating from a 12-day culture.
The radish plants are then maintained at 18-20° C. in a humid atmosphere. The effectiveness of the products is evaluated relative to the control plants after seven to eight days of incubation.
The effectiveness of the molecules is estimated, at 500 g/ha, 250 g/ha or 330 ppm, by the percentage of control relative to untreated plants. Under these conditions, good effectiveness is defined as more than 80% effectiveness. Average effectiveness is defined as an effectiveness between 50 and 80%. Poor effectiveness is defined as an effectiveness between 10 and 50% and zero effectiveness is defined as less than 10% effectiveness.
With `O=C(NCCc1ncc(C(F)(F)F)cc1Cl)c1cccc(C(F)(F)F)c1` [Compound A-28], the “effectiveness (percentage of control relative to untreated plants)” value is listed as “good to average”.

Regarding `O=C(NCCc1ncc(C(F)(F)F)cc1Cl)c1ccccc1[N+](=O)[O-]` [Compound A-29], the “effectiveness (percentage of control relative to untreated plants)” value is “good to average”.

Regarding `O=C(NCCc1ncc(C(F)(F)F)cc1Cl)c1cc(F)c(F)cc1F` [Compound A-41], the “effectiveness (percentage of control relative to untreated plants)” value was “good to average”.

Staying with this assay, now noted: 330 ppm, preventive spray 24 h before inoculation.
For `O=C(NCCc1ncc(C(F)(F)F)cc1Cl)c1cccc(Cl)c1Cl` [Compound A-48], the “effectiveness (percentage of control relative to untreated plants)” value is reported as “good to average”.

Regarding `O=C(NCCc1ncc(C(F)(F)F)cc1Cl)c1cc(Cl)ccc1Cl` [Compound A-49], the “effectiveness (percentage of control relative to untreated plants)” value is “good to average”.

As to `O=C(NCCc1ncc(C(F)(F)F)cc1Cl)c1ccccc1O` [Compound A-52], the “effectiveness (percentage of control relative to untreated plants)” value is given as “good to average”.

For `Cc1cccc(C(=O)NCCc2ncc(C(F)(F)F)cc2Cl)c1C` [Compound A-60], the “effectiveness (percentage of control relative to untreated plants)” value is on record as “good to average”.

`Cc1ccc(C)c(C(=O)NCCc2ncc(C(F)(F)F)cc2Cl)c1` [Compound A-62]: the “effectiveness (percentage of control relative to untreated plants)” value is given as “good to average”.

`O=C(NCCc1ncc(C(F)(F)F)cc1Cl)c1cc(C(F)(F)F)ccc1C(F)(F)F` [Compound A-72]: the “effectiveness (percentage of control relative to untreated plants)” value was “good to average”.

`O=C(NCCc1ncc(C(F)(F)F)cc1Cl)c1ccc(C(F)(F)F)cc1C(F)(F)F` [Compound A-74]: the “effectiveness (percentage of control relative to untreated plants)” value is “good to average”.

In the case of `O=C(NCCc1ncc(C(F)(F)F)cc1Cl)c1c(C(F)(F)F)ccc(Cl)c1F` [Compound A-75], the “effectiveness (percentage of control relative to untreated plants)” value is listed as “good to average”.

For the compound `Cc1c(C(=O)NCCc2ncc(C(F)(F)F)cc2Cl)cccc1[N+](=O)[O-]` [Compound A-77], the “effectiveness (percentage of control relative to untreated plants)” value is given as “good to average”.

Take `Cc1ccc([N+](=O)[O-])cc1C(=O)NCCc1ncc(C(F)(F)F)cc1Cl` [Compound A-79]: the “effectiveness (percentage of control relative to untreated plants)” value is “good to average”.

As to `Cc1cc(Br)ccc1C(=O)NCCc1ncc(C(F)(F)F)cc1Cl` [Compound A-80], the “effectiveness (percentage of control relative to untreated plants)” value was “good to average”.

Regarding `COc1cc(OC)c(C(=O)NCCc2ncc(C(F)(F)F)cc2Cl)cc1OC` [Compound A-84], the “effectiveness (percentage of control relative to untreated plants)” value was “good to average”.

For the compound `COc1ccc(OC)c(C(=O)NCCc2ncc(C(F)(F)F)cc2Cl)c1` [Compound A-85], the “effectiveness (percentage of control relative to untreated plants)” value was “good to average”.

In the case of `CCOc1ccccc1C(=O)NCCc1ncc(C(F)(F)F)cc1Cl` [Compound A-86], the “effectiveness (percentage of control relative to untreated plants)” value was “good to average”.

Regarding `CCCOc1ccccc1C(=O)NCCc1ncc(C(F)(F)F)cc1Cl` [Compound A-91], the “effectiveness (percentage of control relative to untreated plants)” value was “good to average”.

Turning to `COc1ccc(C(C)(C)C)cc1C(=O)NCCc1ncc(C(F)(F)F)cc1Cl` [Compound A-92], the “effectiveness (percentage of control relative to untreated plants)” value is “good to average”.

As for `CSc1ccc(Cl)c(C(=O)NCCc2ncc(C(F)(F)F)cc2Cl)c1` [Compound A-99], the “effectiveness (percentage of control relative to untreated plants)” value was “good to average”.

In the case of `O=C(NCCc1ncc(C(F)(F)F)cc1Cl)c1cc(Cl)ccc1Br` [Compound A-100], the “effectiveness (percentage of control relative to untreated plants)” value is listed as “good to average”.

Turning to `O=C(NCCc1ncc(C(F)(F)F)cc1Cl)c1cc(F)c(F)cc1Cl` [Compound A-107], the “effectiveness (percentage of control relative to untreated plants)” value was “good to average”.

With `O=C(NCCc1ncc(C(F)(F)F)cc1Cl)c1ccc(Cl)cc1Br` [Compound A-110], the “effectiveness (percentage of control relative to untreated plants)” value is reported as “good to average”.

Regarding `O=C(NCCc1ncc(C(F)(F)F)cc1Cl)c1c(F)cccc1Br` [Compound A-112], the “effectiveness (percentage of control relative to untreated plants)” value is recorded as “good to average”.

With `O=C(NCCc1ncc(C(F)(F)F)cc1Cl)c1c(F)ccc(F)c1Cl` [Compound A-113], the “effectiveness (percentage of control relative to untreated plants)” value is listed as “good to average”.

As for `O=C(NCCc1ncc(C(F)(F)F)cc1Cl)c1cccc(F)c1Br` [Compound A-122], the “effectiveness (percentage of control relative to untreated plants)” value is on record as “good to average”.

As for `Cc1cc(C(=O)NCCc2ncc(C(F)(F)F)cc2Cl)c(Cl)c(C)c1F` [Compound A-123], the “effectiveness (percentage of control relative to untreated plants)” value is “good to average”.

Regarding `Cc1ccc(F)c(C(=O)NCCc2ncc(C(F)(F)F)cc2Cl)c1Cl` [Compound A-124], the “effectiveness (percentage of control relative to untreated plants)” value is given as “good to average”.

`CSc1cc(Cl)ccc1C(=O)NCCc1ncc(C(F)(F)F)cc1Cl` [Compound A-127]: the “effectiveness (percentage of control relative to untreated plants)” value is listed as “good to average”.

For `CS(=O)(=O)c1cc(Cl)ccc1C(=O)NCCc1ncc(C(F)(F)F)cc1Cl` [Compound A-128], the “effectiveness (percentage of control relative to untreated plants)” value was “good to average”.

Take `CS(=O)(=O)c1ccc(C(=O)NCCc2ncc(C(F)(F)F)cc2Cl)c(Cl)c1O` [Compound A-136]: the “effectiveness (percentage of control relative to untreated plants)” value is reported as “good to average”.

For `CS(=O)(=O)c1ccc(C(=O)NCCc2ncc(C(F)(F)F)cc2Cl)c(Br)c1` [Compound A-137], the “effectiveness (percentage of control relative to untreated plants)” value is given as “good to average”.

For the compound `CS(=O)(=O)c1ccc(C(=O)NCCc2ncc(C(F)(F)F)cc2Cl)c(C(F)(F)F)c1` [Compound A-138], the “effectiveness (percentage of control relative to untreated plants)” value was “good to average”.

For `CS(=O)(=O)c1cc(C(F)(F)F)ccc1C(=O)NCCc1ncc(C(F)(F)F)cc1Cl` [Compound A-139], the “effectiveness (percentage of control relative to untreated plants)” value was “good to average”.

In the case of `O=C(NCCc1ncc(C(F)(F)F)cc1Cl)c1ccc(Cl)c(Br)c1` [Compound A-141], the “effectiveness (percentage of control relative to untreated plants)” value was “good to average”.

`CSc1ccc(C(=O)NCCc2ncc(C(F)(F)F)cc2Cl)c(C)c1` [Compound A-142]: the “effectiveness (percentage of control relative to untreated plants)” value was “good to average”.

Consider `CSc1cc(C(F)(F)F)ccc1C(=O)NCCc1ncc(C(F)(F)F)cc1Cl` [Compound A-143], for which the “effectiveness (percentage of control relative to untreated plants)” value is “good to average”.

As to `CSc1c(C(=O)NCCc2ncc(C(F)(F)F)cc2Cl)ccc(Cl)c1Cl` [Compound A-144], the “effectiveness (percentage of control relative to untreated plants)” value is listed as “good to average”.

Consider `CSc1c(C(=O)NCCc2ncc(C(F)(F)F)cc2Cl)ccc(Cl)c1Br` [Compound A-146], for which the “effectiveness (percentage of control relative to untreated plants)” value is listed as “good to average”.

As to `O=C(NCCc1ncc(C(F)(F)F)cc1Cl)c1ccc(Cl)c(C(F)(F)F)c1` [Compound A-147], the “effectiveness (percentage of control relative to untreated plants)” value is given as “good to average”.

As for `COc1c(F)ccc(C(=O)NCCc2ncc(C(F)(F)F)cc2Cl)c1SC` [Compound A-148], the “effectiveness (percentage of control relative to untreated plants)” value is “good to average”.

Staying with this assay, now noted: 500 g/ha, preventive spray 24 h before inoculation.
Regarding `COc1ccc(C(=O)NCCc2ncc(C(F)(F)F)cc2Cl)cc1OC` [Compound A-13], the “effectiveness (percentage of control relative to untreated plants)” value is listed as “good to average”.

Turning to `COc1cc(OC)cc(C(=O)NCCc2ncc(C(F)(F)F)cc2Cl)c1` [Compound A-14], the “effectiveness (percentage of control relative to untreated plants)” value is recorded as “good to average”.
